# The source made the active and inactive calls. The calls are words filed in the database; no cut-off is given here.
# Key:
# MDA-MB-231 [1] = experiment: […] DNA repair in human MDA-MB-231 cells assessed as decrease in RAD51 level at 10 uM incubated for 24 hrs by confocal laser scanning microscopic analysis; assay type: functional, cell-based
# MDA-MB-231 [2] = experiment: Induction of […] in human MDA-MB-231 cells assessed as increase in gamma-H2AX foci formation at 10 uM incubated for 24 hrs by confocal laser scanning microscopic analysis; assay type: functional, cell-based
# [3] = MRT (0 to infinity) in Sprague-Dawley rat at 1 mg/kg, iv measured upto 24 hrs by LC-MS/MS analysis; assay type: ADME, organism-based; conditions: in vivo
# [4] = Clearance in Sprague-Dawley rat at 1 mg/kg, iv measured upto 24 hrs by LC-MS/MS analysis; assay type: ADME, organism-based; conditions: in vivo
# [5] = target: T1, Cyclin-dependent kinase 12 (Homo sapiens, UniProt Q9NYV4); experiment: Binding affinity to CDK12 in human MDA-MB-436 cells assessed as increase in protein thermal stabilization at 10 uM incubated for 6 hrs by CETSA based Western blot analysis; assay type: cell-based
# T1 sequence (Q9NYV4 whole entry, looked up): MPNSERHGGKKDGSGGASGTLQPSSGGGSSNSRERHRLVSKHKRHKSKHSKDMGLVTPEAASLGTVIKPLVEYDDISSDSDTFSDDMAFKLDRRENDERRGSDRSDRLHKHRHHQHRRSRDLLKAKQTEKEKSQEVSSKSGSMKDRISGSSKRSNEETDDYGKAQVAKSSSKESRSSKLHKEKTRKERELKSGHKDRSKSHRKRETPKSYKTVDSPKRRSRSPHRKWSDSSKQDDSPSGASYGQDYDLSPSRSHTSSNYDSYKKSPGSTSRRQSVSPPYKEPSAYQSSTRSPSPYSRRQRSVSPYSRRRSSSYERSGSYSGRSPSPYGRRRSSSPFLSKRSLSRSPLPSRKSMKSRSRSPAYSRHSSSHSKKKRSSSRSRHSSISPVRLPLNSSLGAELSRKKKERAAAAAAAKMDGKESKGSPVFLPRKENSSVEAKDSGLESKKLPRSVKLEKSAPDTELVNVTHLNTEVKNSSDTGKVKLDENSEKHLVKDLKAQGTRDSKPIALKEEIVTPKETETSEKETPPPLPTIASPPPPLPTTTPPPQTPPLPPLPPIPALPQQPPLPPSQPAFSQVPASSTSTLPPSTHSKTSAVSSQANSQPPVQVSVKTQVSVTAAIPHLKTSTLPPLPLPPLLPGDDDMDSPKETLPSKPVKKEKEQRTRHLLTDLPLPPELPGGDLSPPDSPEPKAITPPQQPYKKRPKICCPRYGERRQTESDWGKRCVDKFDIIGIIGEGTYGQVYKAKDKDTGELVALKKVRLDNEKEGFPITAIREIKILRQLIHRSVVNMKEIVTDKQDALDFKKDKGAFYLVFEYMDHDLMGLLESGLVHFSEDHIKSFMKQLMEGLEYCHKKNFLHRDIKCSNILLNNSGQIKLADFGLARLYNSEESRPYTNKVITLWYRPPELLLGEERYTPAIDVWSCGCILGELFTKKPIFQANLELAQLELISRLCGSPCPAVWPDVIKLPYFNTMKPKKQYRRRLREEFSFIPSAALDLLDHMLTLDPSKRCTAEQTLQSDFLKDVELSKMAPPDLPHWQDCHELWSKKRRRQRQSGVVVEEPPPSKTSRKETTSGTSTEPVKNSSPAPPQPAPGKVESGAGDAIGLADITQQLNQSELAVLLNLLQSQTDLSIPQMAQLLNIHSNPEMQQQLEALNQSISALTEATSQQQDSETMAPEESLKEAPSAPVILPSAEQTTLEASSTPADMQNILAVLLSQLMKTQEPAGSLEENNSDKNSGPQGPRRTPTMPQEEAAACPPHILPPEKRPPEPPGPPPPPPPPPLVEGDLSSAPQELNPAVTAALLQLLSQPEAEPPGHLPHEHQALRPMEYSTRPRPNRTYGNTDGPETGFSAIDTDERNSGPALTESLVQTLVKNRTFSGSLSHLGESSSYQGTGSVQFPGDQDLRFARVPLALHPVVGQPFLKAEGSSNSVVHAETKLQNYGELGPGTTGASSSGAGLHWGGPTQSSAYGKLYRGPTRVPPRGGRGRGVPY
# MDA-MB-436 [6] = experiment: Antiproliferative activity against human MDA-MB-436 cells transfected with CDK12 M816A and PARP1 G863A mutant incubated for 24 hrs by MTT assay; assay type: functional, cell-based
# MDA-MB-231 [7] = experiment: Downregulation of Pol II CTD at ser2 residue expression in human MDA-MB-231 cells incubated for 24 hrs; assay type: functional, cell-based; conditions: dose 5-20 µM
# MDA-MB-436 [8] = experiment: Antiproliferative activity against human MDA-MB-436 cells assessed as inhibition of cell growth incubated for 24 hrs by MTT assay; assay type: functional, cell-based; conditions: Homo sapiens, MDA-MB-436, 24 h
# [9] = target: MAP kinase-activated protein kinase 2 (Homo sapiens) (UniProt P49137); experiment: Inhibition of MAPK2 (unknown origin) at 1 uM relative to control
# MAP kinase-activated protein kinase 2 (Homo sapiens), sequence (P49137 whole entry, looked up): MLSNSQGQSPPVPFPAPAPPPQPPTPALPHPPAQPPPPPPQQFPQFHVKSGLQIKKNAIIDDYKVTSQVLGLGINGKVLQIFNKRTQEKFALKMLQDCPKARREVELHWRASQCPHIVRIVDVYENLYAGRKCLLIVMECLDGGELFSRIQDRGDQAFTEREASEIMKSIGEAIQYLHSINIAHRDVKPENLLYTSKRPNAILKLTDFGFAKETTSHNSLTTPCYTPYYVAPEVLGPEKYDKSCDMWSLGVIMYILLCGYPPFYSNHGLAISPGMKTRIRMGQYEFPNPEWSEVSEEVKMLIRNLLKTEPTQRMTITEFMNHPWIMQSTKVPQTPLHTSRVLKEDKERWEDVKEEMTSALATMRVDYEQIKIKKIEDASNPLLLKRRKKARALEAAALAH
# Mus musculus = experiment: In-vivo induction of DNA damage in ip dosed BALB/c mouse assessed as downregulation of RAD51 level in tumor administered once daily for 16 days by Western blot analysis; assay type: functional, organism-based; conditions: dose 20-80 mg/kg, time 16.0 day
# MDA-MB-436 [10] = experiment: Induction of cell cycle arrest in human MDA-MB-436 cells assessed as accumulation of cells at G2 phase at 5 uM measured after 24 hrs by PI staining based cytometry analysis (reference value: 2.54%); assay type: functional
# MDA-MB-436 [11] = experiment: Antiproliferative activity against human MDA-MB-436 cells transfected with wild type CDK12 and PARP1 G863A mutant incubated for 24 hrs by MTT assay; assay type: functional, cell-based
# MDA-MB-231 [12] = experiment: Induction of cell cycle arrest in human MDA-MB-231 cells assessed as accumulation of cells at S phase at 20 uM measured after 24 hrs by PI staining based cytometry analysis (reference value: 23.01 %); assay type: functional
# MDA-MB-231 [13] = experiment: Upregulation of gamma-H2AX expression in human MDA-MB-231 cells incubated for 24 hrs by Western blot analysis; assay type: functional, cell-based; conditions: dose <= 20.0 µM
# MDA-MB-231 [14] = experiment: Induction of cell cycle arrest in human MDA-MB-231 cells assessed as accumulation of cells at G1 phase at 5 uM measured after 24 hrs by PI staining based cytometry analysis (reference value: 68.55%); assay type: functional
# MDA-MB-468 [15] = experiment: Induction of […] in human MDA-MB-468 cells assessed as increase in gamma-H2AX foci formation at 10 uM incubated for 24 hrs by confocal laser scanning microscopic analysis; assay type: functional, cell-based
# MDA-MB-231 [16] = experiment: Induction of apoptosis in human MDA-MB-231 cells assessed as increase in […] at 10 uM incubated for 24 hrs by Annexin V/PI staining based flow cytometry analysis; assay type: functional, cell-based
# MDA-MB-231 [17] = experiment: Induction of cell cycle arrest in human MDA-MB-231 cells assessed as accumulation of cells at G1 phase at 20 uM measured after 24 hrs by PI staining based cytometry analysis (reference value: 68.55%); assay type: functional
# MDA-MB-231 [18] = experiment: Induction of apoptosis in human MDA-MB-231 cells assessed as downregulation of Bcl-2 expression incubated for 24 hrs; assay type: functional, cell-based; conditions: dose 5-20 µM
# [19] = target: Vascular endothelial growth factor receptor 3 (Homo sapiens) (UniProt P35916); experiment: Inhibition of FLT4 (unknown origin) at 1 uM relative to control
# Vascular endothelial growth factor receptor 3 (Homo sapiens), sequence (P35916 whole entry): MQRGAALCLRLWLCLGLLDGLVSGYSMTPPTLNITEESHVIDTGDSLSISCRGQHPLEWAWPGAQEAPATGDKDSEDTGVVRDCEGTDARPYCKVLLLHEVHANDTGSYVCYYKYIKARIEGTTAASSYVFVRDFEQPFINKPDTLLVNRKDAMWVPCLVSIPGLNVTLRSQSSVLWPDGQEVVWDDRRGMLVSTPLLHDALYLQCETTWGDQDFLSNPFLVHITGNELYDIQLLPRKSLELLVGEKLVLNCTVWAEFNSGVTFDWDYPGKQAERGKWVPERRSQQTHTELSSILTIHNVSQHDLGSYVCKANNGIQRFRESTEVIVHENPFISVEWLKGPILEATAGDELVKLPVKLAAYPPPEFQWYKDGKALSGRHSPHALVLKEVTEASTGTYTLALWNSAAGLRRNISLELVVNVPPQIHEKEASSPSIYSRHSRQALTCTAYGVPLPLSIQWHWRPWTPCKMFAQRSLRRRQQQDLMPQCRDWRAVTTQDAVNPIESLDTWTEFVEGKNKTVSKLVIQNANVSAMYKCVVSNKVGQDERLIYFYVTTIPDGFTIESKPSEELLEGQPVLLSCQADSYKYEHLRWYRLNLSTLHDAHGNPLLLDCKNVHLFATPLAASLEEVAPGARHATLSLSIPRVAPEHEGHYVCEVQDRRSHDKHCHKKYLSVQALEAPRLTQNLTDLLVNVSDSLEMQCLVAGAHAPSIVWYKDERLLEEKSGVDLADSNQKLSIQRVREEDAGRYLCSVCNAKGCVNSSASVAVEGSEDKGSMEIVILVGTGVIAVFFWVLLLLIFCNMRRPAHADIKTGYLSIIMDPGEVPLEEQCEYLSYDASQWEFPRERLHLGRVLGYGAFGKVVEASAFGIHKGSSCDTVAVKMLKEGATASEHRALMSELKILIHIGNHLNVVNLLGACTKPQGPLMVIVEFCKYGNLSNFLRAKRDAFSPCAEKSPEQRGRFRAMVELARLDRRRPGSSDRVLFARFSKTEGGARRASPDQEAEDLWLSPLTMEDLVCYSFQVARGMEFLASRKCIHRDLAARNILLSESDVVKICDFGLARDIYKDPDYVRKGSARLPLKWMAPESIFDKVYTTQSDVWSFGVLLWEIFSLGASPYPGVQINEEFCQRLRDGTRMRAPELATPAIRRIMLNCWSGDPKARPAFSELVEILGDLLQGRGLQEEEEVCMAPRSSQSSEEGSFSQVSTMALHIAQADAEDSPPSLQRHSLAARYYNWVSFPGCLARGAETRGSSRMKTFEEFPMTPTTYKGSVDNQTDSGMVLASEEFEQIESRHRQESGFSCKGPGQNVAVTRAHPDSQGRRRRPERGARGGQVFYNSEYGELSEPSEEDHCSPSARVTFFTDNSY
# MDA-MB-231 [20] = experiment: Inhibition of cell migration in human MDA-MB-231 cells assessed as wound closure at 10 uM incubated for 24 hrs by wound healing assay; assay type: functional, cell-based
# [21] = Toxicity in BALB/c mouse xenografted with human MDA-MB-231 cells assessed as morphological changes in heart at 20 to 80 mg/kg, ip administered once daily for 16 days by H and E staining based analysis; assay type: organism-based; conditions: in vivo, 384 h, dose 20-80 mg/kg, time 16 day
# [22] = target: AP2-associated protein kinase 1 (Homo sapiens) (UniProt Q2M2I8); experiment: Inhibition of AAK1 (unknown origin) at 1 uM relative to control
# AP2-associated protein kinase 1 (Homo sapiens), sequence (Q2M2I8 whole entry, looked up): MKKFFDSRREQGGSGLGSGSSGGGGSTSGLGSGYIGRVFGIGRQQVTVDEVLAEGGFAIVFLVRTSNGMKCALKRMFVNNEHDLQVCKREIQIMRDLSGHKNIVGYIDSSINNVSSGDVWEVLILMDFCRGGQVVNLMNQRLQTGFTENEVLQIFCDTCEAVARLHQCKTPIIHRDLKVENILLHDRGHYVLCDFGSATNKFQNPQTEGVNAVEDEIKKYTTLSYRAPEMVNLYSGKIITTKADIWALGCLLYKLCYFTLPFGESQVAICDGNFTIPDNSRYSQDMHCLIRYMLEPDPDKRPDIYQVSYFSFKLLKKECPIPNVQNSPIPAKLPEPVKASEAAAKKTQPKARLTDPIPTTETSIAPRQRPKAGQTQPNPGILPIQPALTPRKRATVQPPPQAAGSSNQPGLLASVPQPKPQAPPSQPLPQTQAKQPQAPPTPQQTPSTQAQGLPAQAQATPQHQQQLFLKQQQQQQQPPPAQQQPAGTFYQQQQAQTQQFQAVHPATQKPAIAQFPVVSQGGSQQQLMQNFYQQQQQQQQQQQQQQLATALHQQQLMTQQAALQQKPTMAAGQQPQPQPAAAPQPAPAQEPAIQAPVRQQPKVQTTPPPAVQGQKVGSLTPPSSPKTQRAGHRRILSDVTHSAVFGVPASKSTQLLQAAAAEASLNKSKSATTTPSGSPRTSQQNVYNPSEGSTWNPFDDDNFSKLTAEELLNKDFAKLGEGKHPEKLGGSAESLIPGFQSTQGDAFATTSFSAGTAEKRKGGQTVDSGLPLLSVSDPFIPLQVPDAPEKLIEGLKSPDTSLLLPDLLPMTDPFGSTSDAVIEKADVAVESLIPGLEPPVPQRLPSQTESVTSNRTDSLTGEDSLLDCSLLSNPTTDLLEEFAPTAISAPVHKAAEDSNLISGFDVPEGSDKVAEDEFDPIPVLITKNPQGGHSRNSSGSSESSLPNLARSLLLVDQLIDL
# [23] = target: Dual specificity protein kinase CLK1 (Homo sapiens) (UniProt P49759); experiment: Inhibition of CLK1 (unknown origin) at 1 uM relative to control
# Dual specificity protein kinase CLK1 (Homo sapiens), sequence (P49759 whole entry, looked up): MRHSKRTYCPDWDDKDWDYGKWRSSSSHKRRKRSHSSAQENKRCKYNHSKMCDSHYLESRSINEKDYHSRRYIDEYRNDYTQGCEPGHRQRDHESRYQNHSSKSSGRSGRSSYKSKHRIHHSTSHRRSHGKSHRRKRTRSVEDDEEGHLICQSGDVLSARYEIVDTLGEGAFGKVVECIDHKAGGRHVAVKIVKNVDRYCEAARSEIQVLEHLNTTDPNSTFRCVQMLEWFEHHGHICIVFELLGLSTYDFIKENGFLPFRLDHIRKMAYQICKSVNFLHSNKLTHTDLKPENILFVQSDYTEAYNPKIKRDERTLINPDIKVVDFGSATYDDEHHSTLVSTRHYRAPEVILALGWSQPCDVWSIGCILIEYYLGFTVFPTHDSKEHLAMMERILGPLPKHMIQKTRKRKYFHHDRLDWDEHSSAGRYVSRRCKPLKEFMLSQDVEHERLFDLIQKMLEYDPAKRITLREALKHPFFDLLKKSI
# MDA-MB-436 [24] = experiment: Induction of cell cycle arrest in human MDA-MB-436 cells assessed as accumulation of cells at S phase at 5 uM measured after 24 hrs by PI staining based cytometry analysis (reference value: 25.43%); assay type: functional
# MDA-MB-468 [25] = experiment: Antiproliferative activity against human MDA-MB-468 cells assessed as inhibition of cell growth incubated for 24 hrs by MTT assay; assay type: functional, cell-based; conditions: MDA-MB-468, 24 h
# [26] = Metabolic stability in human liver microsome assessed as intrinsic clearance in presence of NADPH incubated upto 60 mins by LC-MS/MS analysis; assay type: ADME; conditions: liver microsomes, read-out: CLH
# [27] = target: T1, Cyclin-dependent kinase 12; experiment: Binding affinity to CDK12 in human MDA-MB-231 cells assessed as increase in protein thermal stabilization at 10 uM incubated for 6 hrs by CETSA based Western blot analysis; assay type: cell-based
# [28] = target: Poly [ADP-ribose] polymerase 1 (Homo sapiens, UniProt P09874); experiment: Binding affinity to PARP1 in human MDA-MB-231 cells assessed as increase in protein thermal stabilization at 10 uM incubated for 6 hrs by CETSA based Western blot analysis; assay type: cell-based
# [29] = Toxicity in BALB/c mouse xenografted with human MDA-MB-231 cells assessed as morphological changes in lung at 20 to 80 mg/kg, ip administered once daily for 16 days by H and E staining based analysis; assay type: organism-based; conditions: in vivo, 384 h, dose 20-80 mg/kg, time 16 day
# [30] = target: T1, Cyclin-dependent kinase 12; experiment: Inhibition of CDK12 in human MDA-MB-231 cells assessed as effect on Pol II CTD at ser7 residue phosphorylation incubated for 24 hrs; assay type: cell-based; conditions: dose 5-20 µM
# MDA-MB-231 [31] = experiment: Antitumor activity against human MDA-MB-231 cells xenografted in BALB/c mouse assessed as reduction in Ki67 expression at 20 to 80 mg/kg, ip administered once daily for 16 days by meyers hematoxylin staining based IHC analysis; assay type: functional, organism-based; conditions: dose 20-80 mg/kg, time 16.0 day
# MDA-MB-468 [32] = experiment: Antiproliferative activity against human MDA-MB-468 cells assessed as decrease in number of colony formation at 10 uM measured after 24 days by crystal violet staining based analysis; assay type: functional, cell-based; conditions: time 24.0 day
# MDA-MB-436 [33] = experiment: Antiproliferative activity against human MDA-MB-436 cells transfected with wild type PARP1 and CDK12 M816A mutant incubated for 24 hrs by MTT assay; assay type: functional, cell-based
structure (smiles),measurement,setting,value
NC(=O)c1cccc2[nH]c(NC(=O)c3cccc(C(=O)N4CCC(Nc5ncc(I)cn5)CC4)c3)nc12,Activity,MDA-MB-231 [1],Active
same,Activity,MDA-MB-231 [2],Active
same,MRT inf,[3],1.87 h
same,clearance,[4],12.5 mL/min/kg
same,Activity,[5],Active
same,Activity,MDA-MB-436 [6],Active
same,Activity,MDA-MB-231 [7],Dose-Dependent Effect
same,IC50,MDA-MB-436 [8],9 µM
same,inhibition,[9],> 60%
same,Activity,Mus musculus,Dose-Dependent Effect
same,Activity,MDA-MB-436 [10],4.39%
same,Activity,MDA-MB-436 [11],Active
same,Activity,MDA-MB-231 [12],17.32%
same,Activity,MDA-MB-231 [13],Dose-Dependent Effect
same,Activity,MDA-MB-231 [14],63.3%
same,Activity,MDA-MB-468 [15],Active
same,Activity,MDA-MB-231 [16],Active
same,Activity,MDA-MB-231 [17],59.26%
same,Activity,MDA-MB-231 [18],Dose-Dependent Effect
same,inhibition,[19],> 60%
same,inhibition,MDA-MB-231 [20],Active
same,Activity,[21],Non-Toxic
same,inhibition,[22],> 60%
same,inhibition,[23],> 60%
same,Activity,MDA-MB-436 [24],26.5%
same,IC50,MDA-MB-468 [25],9.7 µM
same,CLint scaled,[26],7.61 mL/min/kg
same,Activity,[27],Active
same,Activity,[28],Active
same,Activity,[29],Non-Toxic
same,inhibition,[30],Dose-Dependent Effect
same,Activity,MDA-MB-231 [31],Active
same,Activity,MDA-MB-468 [32],Active
same,Activity,MDA-MB-436 [33],Active
